Usually AC50 stands for the midpoint of the concentration-response curve, whichever way the signal moves. By EC50 is commonly meant the concentration giving half of the maximal effect.

Test [1] can be described thus: inhibition of ARNT PAS-B/TACC3 complex formation – biochemical, AlphaScreen, cherry-picked samples, confirmation (AID 651703).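 Note: His-tagged ARNT PAS-B domain paired with GST-TACC3 E629A dimer coactivator fragment; potency of inhibitors that break up the complex and lower AlphaScreen signal.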 The class given is functional, Homo sapiens. For orientation: In Alpha technology, singlet oxygen from a donor bead excites a nearby acceptor bead.
Test [2] deals with T1, Tyrosine-protein phosphatase non-receptor type 5 (Homo sapiens, UniProt P54829).
T1 sequence (P54829 whole entry): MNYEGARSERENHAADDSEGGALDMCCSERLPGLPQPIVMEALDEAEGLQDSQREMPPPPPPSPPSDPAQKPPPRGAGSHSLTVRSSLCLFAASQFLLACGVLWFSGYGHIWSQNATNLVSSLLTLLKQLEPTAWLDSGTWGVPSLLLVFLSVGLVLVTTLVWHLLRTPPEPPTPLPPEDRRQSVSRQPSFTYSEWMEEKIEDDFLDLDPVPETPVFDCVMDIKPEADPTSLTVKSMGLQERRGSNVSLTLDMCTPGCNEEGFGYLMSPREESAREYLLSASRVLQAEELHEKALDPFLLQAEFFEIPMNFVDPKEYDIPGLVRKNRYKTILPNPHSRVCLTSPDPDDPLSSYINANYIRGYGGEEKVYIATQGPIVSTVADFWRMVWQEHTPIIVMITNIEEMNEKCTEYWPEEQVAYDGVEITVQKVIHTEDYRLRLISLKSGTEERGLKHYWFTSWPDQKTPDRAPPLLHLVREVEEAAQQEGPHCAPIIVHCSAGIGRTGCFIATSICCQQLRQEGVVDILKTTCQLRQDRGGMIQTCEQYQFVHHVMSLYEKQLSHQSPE
Put plainly: PTPN5 enzyme inhibition – biochemical, fluorescence intensity, uHTS hits, confirmation (AID 602372). Type of test: functional. The settings on record: read-out: IC50_Mean.

The target in test [3] is T2, Carboxy-terminal domain RNA polymerase II polypeptide A small phosphatase 1 (Homo sapiens, UniProt Q9GZU7).
T2 sequence (Q9GZU7 whole entry): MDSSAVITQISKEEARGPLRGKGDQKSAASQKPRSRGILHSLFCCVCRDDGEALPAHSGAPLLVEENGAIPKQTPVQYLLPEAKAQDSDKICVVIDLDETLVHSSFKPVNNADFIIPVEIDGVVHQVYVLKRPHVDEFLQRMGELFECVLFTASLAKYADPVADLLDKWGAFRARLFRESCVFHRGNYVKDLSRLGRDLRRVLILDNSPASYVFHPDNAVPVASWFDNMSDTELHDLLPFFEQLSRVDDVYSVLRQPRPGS
Description: CTDSP1 inhibitors, concentration-response, biochemical, absorbance readout, ultra-high-throughput screen actives (AID 540297). The class given is functional.

The target of test [4] is T3, Dual specificity protein phosphatase 3 (Homo sapiens, UniProt P51452). Description: VHR1 phosphatase inhibitors, biochemical (AID 1878).
In test [5] the target is T3, Dual specificity protein phosphatase 3. Description: VHR phosphatase inhibition, dose response, selectivity assay for STEP inhibitor project, biochemical (AID 602374). Type of test: functional. Conditions: read-out: IC50_Mean.
Test [6] shares this target. Description: VHR1 phosphatase inhibitors, primary screen, biochemical, absorbance, uHTS (AID 1654).
In test [7] the target is T4, Insulin-degrading enzyme (Homo sapiens, UniProt P14735).
T4 sequence (P14735 whole entry): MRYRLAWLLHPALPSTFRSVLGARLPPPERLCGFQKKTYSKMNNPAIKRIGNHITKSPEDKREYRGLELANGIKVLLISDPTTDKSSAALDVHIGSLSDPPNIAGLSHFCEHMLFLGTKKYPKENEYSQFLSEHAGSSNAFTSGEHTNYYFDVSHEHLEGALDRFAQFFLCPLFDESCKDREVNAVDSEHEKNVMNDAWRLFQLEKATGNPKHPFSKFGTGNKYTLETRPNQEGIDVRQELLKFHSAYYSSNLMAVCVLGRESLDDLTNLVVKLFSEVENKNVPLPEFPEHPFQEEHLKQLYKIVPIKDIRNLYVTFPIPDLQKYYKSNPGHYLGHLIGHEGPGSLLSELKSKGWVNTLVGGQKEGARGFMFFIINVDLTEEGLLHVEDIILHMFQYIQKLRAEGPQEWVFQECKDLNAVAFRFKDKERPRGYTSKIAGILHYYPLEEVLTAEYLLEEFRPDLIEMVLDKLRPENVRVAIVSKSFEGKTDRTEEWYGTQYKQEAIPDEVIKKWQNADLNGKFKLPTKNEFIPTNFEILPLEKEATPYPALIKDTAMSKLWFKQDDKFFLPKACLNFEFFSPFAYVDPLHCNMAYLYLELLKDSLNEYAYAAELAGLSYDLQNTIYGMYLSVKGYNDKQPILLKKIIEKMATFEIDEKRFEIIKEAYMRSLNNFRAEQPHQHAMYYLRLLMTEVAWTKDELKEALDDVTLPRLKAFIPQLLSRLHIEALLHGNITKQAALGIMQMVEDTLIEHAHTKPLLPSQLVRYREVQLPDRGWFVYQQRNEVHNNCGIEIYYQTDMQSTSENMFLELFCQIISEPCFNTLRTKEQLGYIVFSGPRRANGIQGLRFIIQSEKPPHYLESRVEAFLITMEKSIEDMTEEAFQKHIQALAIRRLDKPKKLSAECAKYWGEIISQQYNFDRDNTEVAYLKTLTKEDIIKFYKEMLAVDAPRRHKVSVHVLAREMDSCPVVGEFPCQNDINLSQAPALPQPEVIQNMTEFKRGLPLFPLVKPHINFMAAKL
Put plainly: cellular IDE activation of Abeta substrate cleavage – fluorescence polarization, HEK cells, dose response (AID 588439). Type of test: functional, cell-based. (In general: In fluorescence polarisation assays a small probe gives low polarisation when free and higher when bound to something large.)

The next test has as its system HEK293. Description: membrane integrity loss in HEK cells – cell-based, fluorescence, cytotoxicity control for IDE activator project, dose response (AID 588440).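 Note: cytotoxicity by LDH release measuring loss of membrane integrity.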 Type of test: functional. The settings on record: Homo sapiens.
The target of test [8] is T4, Insulin-degrading enzyme. Description: recombinant IDE activation, cell-free – biochemical, fluorescence polarization, counter-screen for IDE activator project, dose response (AID 588681).
The target in test [9] is T5, SUMO-activating enzyme (Homo sapiens, UniProt Q9UBT2). Description: blockers of SAE1/SAE2–UBC9 SUMO transfer – biochemical, HTRF, uHTS, primary screen (AID 2006). The class given is protein-complex assay. (In general: In TR-FRET formats the signal depends on donor and acceptor labels being close together.)
Test [10] has as its target T5, SUMO-activating enzyme. Description: blockers of UBC9-mediated SUMO conjugation – biochemical, AlphaScreen, SUMOylation inhibitor project, confirmation (AID 2018). Type of test: functional.
Test [11] addresses Voltage-dependent T-type calcium channel subunit alpha-1H (Homo sapiens, UniProt O95180). The class given is functional.
Another test addresses SUMO E1/E2 (Homo sapiens, UniProt P63279+Q9UBE0+Q9UBT2). Put plainly: SAR analysis of SUMOylation using HTRF in an in-Vitro dose response assay. [Related pubchem assays (depositor defined):AID2006, AID2011, AID2018, AID2069, AID2658]. Type of test: functional.

The source made the active and inactive calls.

T3 sequence (P51452 whole entry): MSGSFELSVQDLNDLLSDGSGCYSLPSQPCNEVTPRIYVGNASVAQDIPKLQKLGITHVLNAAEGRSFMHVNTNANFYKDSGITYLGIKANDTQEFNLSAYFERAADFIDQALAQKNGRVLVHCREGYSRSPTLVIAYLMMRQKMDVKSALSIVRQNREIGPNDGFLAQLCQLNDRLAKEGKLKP
T5 sequence (Q9UBE0 whole entry): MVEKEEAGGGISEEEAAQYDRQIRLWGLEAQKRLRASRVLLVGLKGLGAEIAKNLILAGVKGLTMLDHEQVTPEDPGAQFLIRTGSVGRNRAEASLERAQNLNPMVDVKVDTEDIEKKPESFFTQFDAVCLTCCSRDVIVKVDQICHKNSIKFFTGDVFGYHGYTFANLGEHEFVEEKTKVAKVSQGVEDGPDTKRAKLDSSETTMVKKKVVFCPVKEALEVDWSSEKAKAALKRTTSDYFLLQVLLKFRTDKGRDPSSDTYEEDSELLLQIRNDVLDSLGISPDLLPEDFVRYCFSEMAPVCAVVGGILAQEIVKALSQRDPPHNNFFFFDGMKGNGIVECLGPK
T5 sequence (Q9UBT2 whole entry): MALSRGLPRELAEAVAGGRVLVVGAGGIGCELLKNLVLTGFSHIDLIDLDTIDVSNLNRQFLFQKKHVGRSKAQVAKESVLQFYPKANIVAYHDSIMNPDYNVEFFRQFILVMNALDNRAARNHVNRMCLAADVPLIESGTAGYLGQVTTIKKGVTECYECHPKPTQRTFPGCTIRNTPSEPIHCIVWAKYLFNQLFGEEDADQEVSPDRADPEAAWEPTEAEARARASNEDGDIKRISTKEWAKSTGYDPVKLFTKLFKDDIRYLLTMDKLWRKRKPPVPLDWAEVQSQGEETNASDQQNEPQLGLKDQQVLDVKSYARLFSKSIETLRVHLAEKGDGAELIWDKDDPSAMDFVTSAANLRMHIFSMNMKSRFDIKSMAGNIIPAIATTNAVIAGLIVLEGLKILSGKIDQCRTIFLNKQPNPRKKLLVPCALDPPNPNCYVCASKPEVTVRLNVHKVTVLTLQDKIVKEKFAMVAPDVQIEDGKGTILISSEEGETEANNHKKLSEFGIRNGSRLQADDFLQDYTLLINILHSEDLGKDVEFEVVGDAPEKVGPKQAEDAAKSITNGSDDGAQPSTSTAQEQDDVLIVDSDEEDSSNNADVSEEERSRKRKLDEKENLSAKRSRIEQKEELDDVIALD
Chain of Voltage-dependent T-type calcium channel subunit alpha-1H (O95180 whole entry): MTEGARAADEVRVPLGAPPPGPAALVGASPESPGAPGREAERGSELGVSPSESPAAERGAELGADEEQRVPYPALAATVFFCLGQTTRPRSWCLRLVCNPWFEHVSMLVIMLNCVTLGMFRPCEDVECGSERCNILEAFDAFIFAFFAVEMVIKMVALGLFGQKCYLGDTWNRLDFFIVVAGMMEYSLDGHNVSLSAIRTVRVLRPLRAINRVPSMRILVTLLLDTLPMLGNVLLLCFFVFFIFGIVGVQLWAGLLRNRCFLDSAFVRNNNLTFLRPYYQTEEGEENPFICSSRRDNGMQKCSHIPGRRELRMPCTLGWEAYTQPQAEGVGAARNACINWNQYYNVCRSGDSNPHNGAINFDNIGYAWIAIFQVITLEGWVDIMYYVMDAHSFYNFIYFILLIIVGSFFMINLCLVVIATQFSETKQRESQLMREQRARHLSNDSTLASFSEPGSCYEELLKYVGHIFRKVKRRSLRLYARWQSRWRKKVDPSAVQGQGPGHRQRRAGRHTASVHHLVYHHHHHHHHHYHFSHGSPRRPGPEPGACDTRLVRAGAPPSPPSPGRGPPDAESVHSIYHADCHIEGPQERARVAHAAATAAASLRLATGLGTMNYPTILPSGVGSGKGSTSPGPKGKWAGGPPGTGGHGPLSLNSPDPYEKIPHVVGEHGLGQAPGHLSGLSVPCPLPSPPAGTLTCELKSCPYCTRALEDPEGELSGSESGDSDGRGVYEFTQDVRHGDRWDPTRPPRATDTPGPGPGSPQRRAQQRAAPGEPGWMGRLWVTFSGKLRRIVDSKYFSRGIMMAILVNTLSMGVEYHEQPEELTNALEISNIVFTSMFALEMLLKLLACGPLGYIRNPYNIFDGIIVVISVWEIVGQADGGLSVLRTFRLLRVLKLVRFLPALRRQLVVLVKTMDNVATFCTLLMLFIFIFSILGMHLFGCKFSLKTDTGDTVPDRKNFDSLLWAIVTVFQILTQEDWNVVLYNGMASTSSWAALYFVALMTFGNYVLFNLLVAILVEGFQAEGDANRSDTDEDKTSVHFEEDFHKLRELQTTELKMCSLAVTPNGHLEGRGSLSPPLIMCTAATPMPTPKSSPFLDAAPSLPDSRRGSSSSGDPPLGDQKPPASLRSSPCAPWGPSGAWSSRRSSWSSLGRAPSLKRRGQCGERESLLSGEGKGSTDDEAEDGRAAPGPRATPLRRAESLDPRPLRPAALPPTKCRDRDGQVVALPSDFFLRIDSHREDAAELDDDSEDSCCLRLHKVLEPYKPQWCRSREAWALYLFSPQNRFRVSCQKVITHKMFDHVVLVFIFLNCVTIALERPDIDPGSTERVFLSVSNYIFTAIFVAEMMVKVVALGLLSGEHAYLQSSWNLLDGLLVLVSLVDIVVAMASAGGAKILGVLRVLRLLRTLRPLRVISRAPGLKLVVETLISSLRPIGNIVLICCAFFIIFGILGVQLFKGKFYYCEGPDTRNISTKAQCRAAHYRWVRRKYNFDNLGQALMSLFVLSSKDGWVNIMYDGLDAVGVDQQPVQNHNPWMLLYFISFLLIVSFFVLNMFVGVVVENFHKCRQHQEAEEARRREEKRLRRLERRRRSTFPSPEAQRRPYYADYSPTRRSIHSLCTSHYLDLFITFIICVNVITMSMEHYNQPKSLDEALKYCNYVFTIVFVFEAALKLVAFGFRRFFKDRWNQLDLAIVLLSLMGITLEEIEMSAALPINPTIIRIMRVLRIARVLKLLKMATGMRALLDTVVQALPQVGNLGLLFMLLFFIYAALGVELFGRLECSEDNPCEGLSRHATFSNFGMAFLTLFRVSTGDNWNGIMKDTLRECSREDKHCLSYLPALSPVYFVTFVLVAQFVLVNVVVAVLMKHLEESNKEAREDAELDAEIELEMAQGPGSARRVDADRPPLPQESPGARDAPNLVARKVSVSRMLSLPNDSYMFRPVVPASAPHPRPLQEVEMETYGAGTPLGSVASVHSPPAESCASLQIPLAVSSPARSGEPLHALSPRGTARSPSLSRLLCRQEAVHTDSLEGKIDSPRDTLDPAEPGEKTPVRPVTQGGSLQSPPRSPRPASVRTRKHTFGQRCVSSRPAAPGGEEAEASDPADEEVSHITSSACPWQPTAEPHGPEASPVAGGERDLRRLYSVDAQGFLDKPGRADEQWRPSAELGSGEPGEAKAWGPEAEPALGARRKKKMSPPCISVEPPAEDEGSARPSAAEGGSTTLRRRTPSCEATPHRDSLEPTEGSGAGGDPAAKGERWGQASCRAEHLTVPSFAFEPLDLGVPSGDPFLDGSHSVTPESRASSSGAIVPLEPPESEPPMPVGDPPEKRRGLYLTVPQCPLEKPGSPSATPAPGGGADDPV
Chain of SUMO E1/E2 (Q9UBE0 whole entry): as the sequence (Q9UBE0 whole entry) above
Chain of SUMO E1/E2 (Q9UBT2 whole entry): as the sequence (Q9UBT2 whole entry) above
Chain of SUMO E1/E2 (P63279 whole entry): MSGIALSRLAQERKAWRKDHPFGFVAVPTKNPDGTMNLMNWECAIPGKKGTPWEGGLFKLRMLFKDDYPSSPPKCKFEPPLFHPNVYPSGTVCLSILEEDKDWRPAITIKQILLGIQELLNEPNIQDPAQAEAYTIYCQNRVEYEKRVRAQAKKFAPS

For the compound `CCOC(=O)c1ccc(Nc2cc3ccccc3c(O)n2)cc1`, the AC50 in [1] was 84.2 µM (active).

In the case of `CCOC(=O)c1sc2nc3c(SCC(=O)O)cc(C(=O)c4ccccc4O)cn3c(=O)c2c1C`, the IC50 is 2.18 µM (active) in test [2]; 14.8 µM (active) in test [3]; 3.69 µM (active) in test [4]; 0.549 µM (active) in test [5]; 4.64 µM (active) in [6].

Consider `O=c1oc2c(O)cccc2cc1-c1nc2ccccc2[nH]1`, for which the EC50 at Insulin-degrading enzyme [7] and at Insulin-degrading enzyme [8] was > 54.7 µM (inactive) each time. Further, the IC50 in the test with HEK293 was > 89.3 µM (inactive).

Regarding `C=CCn1c(NC(=O)c2ccccc2Cl)c(C#N)c2nc3ccccc3nc21`, the figures for the IC50 at SUMO-activating enzyme [9], at SUMO-activating enzyme [10] and at SUMO E1/E2 were 2.63 µM (active), 0.86 µM (active) and 15.7 µM (active), respectively. Besides, in [11], the EC50 is 4.23 µM (active).

These data come from ChEMBL document CHEMBL1201862, “PubChem BioAssay data set” (2004).
